Data from the supplement of paper PMC13380429.
Where a name gives a salt, the structure may show the parent alone.

Columns and labels:
Conditions in all cases: 72 h
Caco-2 [1] = assay: cell viability relative to DMSO; higher = less toxic
Calu-3 [2] = assay: as above
HepG2 [3] = assay: as above
U2OS [4] = assay: as above
Vero E6 [5] = assay: as above
Caco-2 [6] = assay: relative viability EC50 (midpoint between 100% and the lowest measured viability); higher = less toxic
Calu-3 [7] = assay: as above
HepG2 [8] = assay: as above
U2OS [9] = assay: as above
Vero E6 [10] = assay: as above
Caco-2 [11] = assay: drug sensitivity score (DSS) for viability; higher = more toxic; extreme values may be limits of the assay
Calu-3 [12] = assay: as above
HepG2 [13] = assay: as above
U2OS [14] = assay: as above
Vero E6 [15] = assay: as above

SMILES | cell viability (Caco-2 [1]; 1 nM) [%] | cell viability (Caco-2 [1]; 10 nM) [%] | cell viability (Caco-2 [1]; 100 nM) [%] | cell viability (Caco-2 [1]; 1000 nM) [%] | cell viability (Caco-2 [1]; 10000 nM) [%] | cell viability (Calu-3 [2]; 1 nM) [%] | cell viability (Calu-3 [2]; 10 nM) [%] | cell viability (Calu-3 [2]; 100 nM) [%] | cell viability (Calu-3 [2]; 1000 nM) [%] | cell viability (Calu-3 [2]; 10000 nM) [%] | cell viability (HepG2 [3]; 1 nM) [%] | cell viability (HepG2 [3]; 10 nM) [%] | cell viability (HepG2 [3]; 100 nM) [%] | cell viability (HepG2 [3]; 1000 nM) [%] | cell viability (HepG2 [3]; 10000 nM) [%] | cell viability (U2OS [4]; 1 nM) [%] | cell viability (U2OS [4]; 10 nM) [%] | cell viability (U2OS [4]; 100 nM) [%] | cell viability (U2OS [4]; 1000 nM) [%] | cell viability (U2OS [4]; 10000 nM) [%] | cell viability (Vero E6 [5]; 1 nM) [%] | cell viability (Vero E6 [5]; 10 nM) [%] | cell viability (Vero E6 [5]; 100 nM) [%] | cell viability (Vero E6 [5]; 1000 nM) [%] | cell viability (Vero E6 [5]; 10000 nM) [%] | relative viability EC50 (Caco-2 [6]) [µM] | relative viability EC50 (Calu-3 [7]) [µM] | relative viability EC50 (HepG2 [8]) [µM] | relative viability EC50 (U2OS [9]) [µM] | relative viability EC50 (Vero E6 [10]) [µM] | drug sensitivity score (Caco-2 [11]) | drug sensitivity score (Calu-3 [12]) | drug sensitivity score (HepG2 [13]) | drug sensitivity score (U2OS [14]) | drug sensitivity score (Vero E6 [15])
CC(C)(C)c1ccc(S(=O)(=O)NCc2ccc(C(=O)Nc3cccnc3)cc2)cc1 [STF-31] | 96.7 | 99.3 | 96.2 | 89.6 | 5.5 | 90.7 | 96.3 | 100 | 106 | 7.7 | 105 | 103 | 106 | 76.5 | 16.9 | 103 | 98.8 | 106 | 28.8 | 0.2 | 103 | 102 | 106 | 101 | 2.9 | 2.26 | 3.48 | 1.45 | 0.698 | 3.2 | 7 | 4.7 | 8.1 | 13.6 | 5.4
CN[C@@H]1[C@H](O[C@H]2[C@H](O[C@H]3[C@H](O)[C@@H](O)[C@H](N=C(N)N)[C@@H](O)[C@@H]3N=C(N)N)O[C@@H](C)[C@]2(O)C=O)O[C@@H](CO)[C@H](O)[C@H]1O [STREPTOMYCIN SULFATE [5mM; 10% aq DMSO + 5mM ethanolamine]] | 95 | 106 | 88.5 | 95.7 | 98.1 | 87.6 | 102 | 86.6 | 91.9 | 91.7 | 101 | 105 | 102 | 101 | 98.2 | 98.7 | 100 | 94.5 | 99.5 | 95.7 | 97.8 | 98.5 | 99.9 | 95.2 | 98.3 | > 10 | > 10 | > 10 | > 10 | > 10 | 0 | 0 | 0 | 0 | 0
O=C1CC(=O)c2c(Cl)c(Cl)c(Cl)c(Cl)c21 [TCID] | 120 | 102 | 98.3 | 91.1 | 95.6 | 88 | 88.5 | 91.7 | 77.9 | 89.2 | 99.9 | 101 | 104 | 107 | 107 | 101 | 103 | 106 | 104 | 94.6 | 101 | 99.1 | 97 | 101 | 100 | > 10 | > 10 | > 10 | > 10 | > 10 | 0 | 0 | 0 | 0 | 0
COc1cc2c(cc1OC)CN(C(=O)[C@@H](NCc1ccncc1)C(C)(C)C)CC2 [TCS-OX2-29] | 96.9 | 95.2 | 97.3 | 99.2 | 91.1 | 114 | 88.9 | 103 | 98.6 | 91.7 | 101 | 93.1 | 103 | 94.3 | 102 | 94.6 | 100 | 92.6 | 98.3 | 99.7 | 100 | 91.9 | 96.8 | 93.9 | 96.9 | > 10 | > 10 | > 10 | > 10 | > 10 | 0 | 0 | 0 | 0 | 0
O=C(NC(=O)c1c(F)cccc1Cl)NC1c2ccccc2-c2ccccc21 [TMN-355] | 93.1 | 93.7 | 86.8 | 92.1 | 104 | 88 | 93.9 | 108 | 91.7 | 97.6 | 97.4 | 103 | 101 | 109 | 108 | 97.4 | 99.9 | 96.9 | 94.2 | 102 | 100 | 91.9 | 104 | 98.4 | 106 | > 10 | > 10 | > 10 | > 10 | > 10 | 0 | 0 | 0 | 0 | 0
CC[C@@H](c1cccc(O)c1)[C@@H](C)CN(C)C [Tapentadol (hydrochloride)] | 93.5 | 99.6 | 96.3 | 91.7 | 107 | 89 | 80.2 | 102 | 90.9 | 92.5 | 97 | 90.6 | 95.2 | 101 | 99.9 | 97 | 99.7 | 102 | 93.9 | 97.8 | 103 | 108 | 97.3 | 97.1 | 96.3 | > 10 | > 10 | > 10 | > 10 | > 10 | 0 | 0.1 | 0 | 0 | 0
N[C@@H](Cn1ccc(=O)n(Cc2ccccc2C(=O)O)c1=O)C(=O)O [UBP-302] | 91.6 | 93 | 91.2 | 89.6 | 98.1 | 105 | 94.8 | 107 | 115 | 107 | 103 | 101 | 97.9 | 101 | 104 | 99 | 95.5 | 97.6 | 92.7 | 98.7 | 101 | 98.6 | 103 | 101 | 102 | > 10 | > 10 | > 10 | > 10 | > 10 | 0 | 0 | 0 | 0 | 0
